Experimental data published in patent US7977387B2, “Aminobenzophenone compounds” (Leo Pharma A/S, priority 2003, dated 2011).

Experiments:
[1] = test system: IL-1β; test: Inhibition of IL-1β secretion in LPS stimulated peripheral blood mononuclear cells; assay type: cell-based; settings: PBMC; LPS stimulated human peripheral blood mononuclear cells, 18 hours, ELISA; read-out: The median inhibition concentration (IC50, nM) of IL-1β
Procedure: (§1) To study the effect of compounds of the present invention in vitro, the inhibition of IL-1β and TNF-α secretion was determined using the following procedure:
(§2) Cytokine production was measured in the media from lipopolysaccharide (LPS) stimulated peripheral blood mononuclear cells. The mononuclear cells were isolated from human peripheral blood by Lymphoprep® (Nycomed, Norway) fractionation and suspended in RPMI 1640 (growth medium) with foetal calf serum (FCS, 2%), at a concentration of 5×10^5 cells/ml. The cells were incubated in 24-well tissue culture plates in 1 ml aliquots. Test compounds were dissolved in dimethylsulfoxide (DMSO, 10 mM) and were diluted with the medium. Compounds were added to the cells for 30 minutes, then LPS ([…] final concentration) was added. The plates were incubated for 18 hours, and the concentration of IL-β and TNF-α in the medium was determined by enzyme-linked immunosorbent assays. The median inhibitory concentrations (IC50) of the compounds were calculated.

[2] = test system: TNF-α; test: Inhibition of TNF-α secretion in LPS stimulated peripheral blood mononuclear cells; assay type: cell-based; settings: PBMC; LPS stimulated human peripheral blood mononuclear cells, 18 hours, ELISA; read-out: The median inhibition concentration (IC50, nM) of TNF-α
Procedure: as §1, §2

[3] = test system: LPS induced TNF-α response; test: In vivo screening model of LPS induced TNF-α response in mice; settings: Mus musculus, mice (C3H/HeN), dosed 1 hour prior to LPS, plasma TNF-α 80-90 minutes after LPS, vs LPS treated control group, read-out: In vivo inhibition of LPS induced TNF-α production (in %)
Procedure: In Vivo Screening Model of LPS Induced TNF-α Response in Mice
To study the effect of compounds of the present invention in vivo, an in vivo screening model of LPS induced TNF-α response in mice was set up as follows: Groups of 6 mice (C3H/HeN, female, about 8 weeks (20 g), Bomholtgaard) were dosed with test compounds in suspension vehicle 1 hour prior to LPS administration (LPS from E. coli 055:B5, L-4005, Sigma). At time 0, the mice were dosed ip with 1.0 mg LPS/kg. After anesthetization with Hypnorm/Dormicum, the mice were bled from the periorbital venous plexus 80-90 minutes after LPS administration. The blood samples were sampled in EDTA stabilised tubes and centrifuged at 4000 rpm for 10 minutes at 4° C. The plasma level of TNF-α was analysed by ELISA. Compound 156 of WO 98/32730 was used as reference compound. The plasma level of TNF-α was determined using a sandwich ELISA. Microtiter plates were coated with a monoclonal antibody against mouse TNF-α, washed and blocked with a casein buffer. Samples of mouse TNF-α recombinant standards were added to the wells of the microtiter plates and incubated. All standards were tested in triplicate, all plasma samples in single. After sample and standard incubation, the plates were washed and incubated with biotinylated polyclonal secondary antibody against mouse TNF-α and washed. Enzyme conjugate was added to all wells and incubated. Substrate was added and the enzyme/substrate reaction stopped after 15 minutes at room temperature with 1M H2SO4. The colour development (OD) was measured at 450 nm on an ELISA reader and the background OD at 620 nm was subtracted. […] The results of the tested compounds are indicated as a percentage inhibition compared to an LPS treated control group. Compounds were tested at 10 mg/kg. The Mann-Whitney test was used to compare drug treated groups to the LPS treated control group (p<0.05).

Row | Structure (SMILES) | IC50 [1] | IC50 [2] | inhibition at 10 mg/kg [3]
1 | Cc1ccc(C(=O)NCCO)cc1C(=O)c1ccc(Nc2ccc(Br)cc2N)cc1Cl [Compound 113, 3-[4-(2-Amino-4-bromophenylamino)-2-chlorobenzoyl]-N-(2-hydroxyethyl)-4-methylbenzamide] | 4 nM | 1.8 nM | 83%
2 | COCCOCC(=O)Nc1ccc(C)c(C(=O)c2ccc(Nc3ccc(F)cc3F)cc2Cl)c1 [Compound 243, N-{3-[2-Chloro-4-(2,4-difluoro-phenylamino)-benzoyl]-4-methyl-phenyl}-2-(2-methoxy-ethoxy)-acetamide] | 2.8 nM | 1.3 nM | 
3 | Cc1ccc(NC(=O)CCO)cc1C(=O)c1ccc(Nc2ccc(F)cc2F)cc1Cl [Compound 245, N-{3-[2-Chloro-4-(2,4-difluoro-phenylamino)-benzoyl]-4-methyl-phenyl}-3-hydroxy-propionamide] | 3.5 nM | 0.9 nM | 
4 | Cc1ccc(NC(=O)c2ccccc2O)cc1C(=O)c1ccc(Nc2ccc(F)cc2F)cc1Cl [Compound 247, N-{3-[2-Chloro-4-(2,4-difluoro-phenylamino)-benzoyl]-4-methyl-phenyl}-2-hydroxy-benzamide] | 5.6 nM | 1.4 nM | 
5 | Cc1ccc(NC(=O)NCCc2ccccc2)cc1C(=O)c1ccc(Nc2ccc(F)cc2F)cc1Cl [Compound 272, 1-{3-[2-Chloro-4-(2,4-difluoro-phenylamino)-benzoyl]-4-methyl-phenyl}-3-phenethyl-urea] | 3.2 nM | 1.4 nM | 
6 | Cc1ccc(NC(=O)NC(C)C)cc1C(=O)c1ccc(Nc2ccc(F)cc2F)cc1Cl [Compound 275, 1-{3-[2-Chloro-4-(2,4-difluoro-phenylamino)-benzoyl]-4-methyl-phenyl}-3-isopropyl-urea] | 5 nM | 0.3 nM | 
7 | Cc1ccc(-c2cccc(CO)c2)cc1C(=O)c1ccc(Nc2ccc(F)cc2F)cc1Cl [Compound 282, [2-Chloro-4-(2,4-difluoro-phenylamino)-phenyl]-(3′-hydroxymethyl-4-methyl-biphenyl-3-yl)-methanone] | 5.6 nM | 0.6 nM | 
8 | COc1ccc(COC(C)=O)cc1C(=O)c1ccc(Nc2ccc(F)cc2F)cc1Cl [Compound 336, Acetic acid 3-[2-chloro-4-(2,4-difluoro-phenylamino)-benzoyl]-4-methoxy-benzyl ester] | 5 nM | 2 nM | 
9 | Cc1ccc(C(=O)O)cc1C(=O)c1ccc(Nc2ccc(F)cc2F)cc1Cl [Compound 424, 3-[2-Chloro-4-(2,4-difluorophenylamino)benzoyl]-4-methylbenzoic acid] |  |  | 44%
10 | Cc1ccccc1C(=O)c1ccc(Nc2ccccc2N)cc1Cl [Ref. comp. a, 4-(2-aminophenylamino)-2-chloro-2′-methylbenzophenone, reference compound] |  |  | 23%
11 | Cc1ccccc1C(=O)c1ccc(Nc2cccc(F)c2C)cc1Cl [Ref. comp. f, 2-Chloro-4-(3-fluoro-2-methyl-phenylamino)-2′-methylbenzophenone, reference compound] | 13 nM | 4 nM | 

Continued, in another order:

Row | IC50 [1] | IC50 [2] | Structure (SMILES) | inhibition at 10 mg/kg [3]
12 | 2 nM | 1.3 nM | Cc1cc(F)ccc1Nc1ccc(C(=O)c2cc(C(=O)NCC3CCCO3)ccc2C)c(Cl)c1 (stereo not drawn) [Compound 104, 3-[2-Chloro-4-(4-fluoro-2-methylphenylamino)benzoyl]-4-methyl-N-(tetrahydrofuran-2-ylmethyl)benzamide] | 95%
13 | 1.4 nM | 0.5 nM | CCC(=O)Nc1ccc(C)c(C(=O)c2ccc(Nc3ccc(F)cc3F)cc2Cl)c1 [Compound 242, N-{3-[2-Chloro-4-(2,4-difluoro-phenylamino)-benzoyl]-4-methyl-phenyl}-propionamide] | 
14 | 1.3 nM | 0.5 nM | Cc1ccc(NC(=O)CCN2CCOCC2)cc1C(=O)c1ccc(Nc2ccc(F)cc2F)cc1Cl [Compound 244, N-{3-[2-Chloro-4-(2,4-difluoro-phenylamino)-benzoyl]-4-methyl-phenyl}-3-morpholin-4-yl-propionamide] | 
15 | 1 nM | 0.7 nM | Cc1ccc(NC(=O)CC2NC(=O)NC2=O)cc1C(=O)c1ccc(Nc2ccc(F)cc2F)cc1Cl (stereo not drawn) [Compound 248, N-{3-[2-Chloro-4-(2,4-difluoro-phenylamino)-benzoyl]-4-methyl-phenyl}-2-(2,5-dioxo-imidazolidin-4-yl)-acetamide] | 
16 | 1.6 nM | 1.1 nM | Cc1ccc(NC(=O)C2CC(=O)NC(=O)N2)cc1C(=O)c1ccc(Nc2ccc(F)cc2F)cc1Cl (stereo not drawn) [Compound 249, 2,6-Dioxo-hexahydro-pyrimidine-4-carboxylic acid {3-[2-chloro-4-(2,4-difluoro-phenylamino)-benzoyl]-4-methyl-phenyl}-amide] | 
17 | 0.6 nM | 0.6 nM | Cc1ccc(NC(=O)CCS(C)(=O)=O)cc1C(=O)c1ccc(Nc2ccc(F)cc2F)cc1Cl [Compound 252, N-{3-[2-Chloro-4-(2,4-difluoro-phenylamino)-benzoyl]-4-methyl-phenyl}-3-methanesulfonyl-propionamide] | 
18 | 2.2 nM | 1 nM | CCOC(=O)CNC(=O)Nc1ccc(C)c(C(=O)c2ccc(Nc3ccc(F)cc3F)cc2Cl)c1 [Compound 261, (3-{3-[2-Chloro-4-(2,4-difluoro-phenylamino)-benzoyl]-4-methyl-phenyl}-ureido)-acetic acid ethyl ester] | 
19 | 2 nM | 0.6 nM | COc1cccc(NC(=O)Nc2ccc(C)c(C(=O)c3ccc(Nc4ccc(F)cc4F)cc3Cl)c2)c1 [Compound 262, 1-{3-[2-Chloro-4-(2,4-difluoro-phenylamino)-benzoyl]-4-methyl-phenyl}-3-(3-methoxy-phenyl)-urea] | 
20 | 1 nM | 0.3 nM | CCOC(=O)CCNC(=O)Nc1ccc(C)c(C(=O)c2ccc(Nc3ccc(F)cc3F)cc2Cl)c1 [Compound 265, 3-(3-{3-[2-Chloro-4-(2,4-difluoro-phenylamino)-benzoyl]-4-methyl-phenyl}-ureido)-propionic acid ethyl ester] | 
21 | 0.4 nM | 0.2 nM | C=CCNC(=O)Nc1ccc(C)c(C(=O)c2ccc(Nc3ccc(F)cc3F)cc2Cl)c1 [Compound 267, 1-Allyl-3-{3-[2-chloro-4-(2,4-difluoro-phenylamino)-benzoyl]-4-methyl-phenyl}-urea] | 
22 | 0.8 nM | 0.6 nM | CCNC(=O)Nc1ccc(C)c(C(=O)c2ccc(Nc3ccc(F)cc3F)cc2Cl)c1 [Compound 269, 1-{3-[2-Chloro-4-(2,4-difluoro-phenylamino)-benzoyl]-4-methyl-phenyl}-3-ethyl-urea] | 
23 | 1 nM | 0.4 nM | CCCCNC(=O)Nc1ccc(C)c(C(=O)c2ccc(Nc3ccc(F)cc3F)cc2Cl)c1 [Compound 271, 1-Butyl-3-{3-[2-chloro-4-(2,4-difluoro-phenylamino)-benzoyl]-4-methyl-phenyl}-urea] | 
24 | 2.5 nM | 0.8 nM | Cc1ccc(NC(=O)OCc2ccccc2)cc1C(=O)c1ccc(Nc2ccc(F)cc2F)cc1Cl [Compound 277, {3-[2-Chloro-4-(2,4-difluoro-phenylamino)-benzoyl]-4-methyl-phenyl}-carbamic acid benzyl ester] | 
25 | 0.6 nM | 0.5 nM | CCOC(=O)Nc1ccc(C)c(C(=O)c2ccc(Nc3ccc(F)cc3F)cc2Cl)c1 [Compound 279, {3-[2-Chloro-4-(2,4-difluoro-phenylamino)-benzoyl]-4-methyl-phenyl}-carbamic acid ethyl ester] | 
26 | 1.4 nM | 0.6 nM | CC(=O)Nc1cccc(-c2ccc(C)c(C(=O)c3ccc(Nc4ccc(F)cc4F)cc3Cl)c2)c1 [Compound 285, N-{3′-[2-Chloro-4-(2,4-difluoro-phenylamino)-benzoyl]-4′-methyl-biphenyl-3-yl}-acetamide] | 
27 | 2.7 nM | 2.5 nM | COc1ccc(CO)cc1C(=O)c1ccc(Nc2ccc(F)cc2F)cc1Cl [Compound 335, [2-Chloro-4-(2,4-difluoro-phenylamino)-phenyl]-(5-hydroxymethyl-2-methoxy-phenyl)-methanone] | 
